Results from ChEMBL document CHEMBL3621042, “Design, synthesis of novel tryptophan derivatives for antiplatelet aggregation activity based on tripeptide pENW (pGlu-Asn-Trp)” (Eur J Med Chem, 2015).
Activity calls are given as the source filed them. The calls are words filed in the database; no cut-off is given here. Square brackets hold non-standard residues; d marks the D form. Peptide text beside a SMILES is read from it. pGlu = O=C1CC[C@@H](C(=O)O)N1

Legend:
[1] = target: T1, Integrin alpha-IIb/beta-3 (Oryctolagus cuniculus) (UniProt Q9TUN4+Q9TUN3); test: Antagonist activity at GP2b/3a receptor in New Zealand rabbit platelet-rich plasma assessed as inhibition of ADP-induced platelet aggregation at 100 uM preincubated for 1 min followed by addition of ADP by aggregometer
[2] = target: T1, Integrin alpha-IIb/beta-3 (Oryctolagus cuniculus); test: Antagonist activity at GP2b/3a receptor in New Zealand rabbit platelet-rich plasma assessed as inhibition of ADP-induced platelet aggregation at 500 uM preincubated for 1 min followed by addition of ADP by aggregometer
Mus musculus [3] = test: Toxicity in ICR mouse assessed as bleeding time at 1 mg/kg incubated for 30 mins prior to testing by tail transection method; assay type: organism-based; settings: in vivo, 0.5 h
[4] = target: T1, Integrin alpha-IIb/beta-3 (Oryctolagus cuniculus); settings: New Zealand, Plasma, 1 to 1000 uM
Description: Antagonist activity at GP2b/3a receptor in New Zealand rabbit platelet-rich plasma assessed as inhibition of ADP-induced platelet aggregation at 1 to 1000 uM preincubated for 1 min followed by addition of ADP by aggregometer

Rattus norvegicus [5] = test: Antithrombotic activity in Sprague-Dawley rat arteriovenous shunt thrombosis model assessed as wet/dry weight reduction of thrombus at 1 mg/kg, iv incubated for 30 mins prior to testing; assay type: functional
[6] = target: Integrin alpha-IIb/beta-3 (Homo sapiens, UniProt P05106+P08514); test: Antagonist activity at GP2b/3a receptor (unknown origin) assessed as inhibition of interaction with fibrinogen after 2 hrs by ELISA; assay type: protein-complex assay
Sequence of Integrin alpha-IIb/beta-3 (P05106 27-788 limits assumed): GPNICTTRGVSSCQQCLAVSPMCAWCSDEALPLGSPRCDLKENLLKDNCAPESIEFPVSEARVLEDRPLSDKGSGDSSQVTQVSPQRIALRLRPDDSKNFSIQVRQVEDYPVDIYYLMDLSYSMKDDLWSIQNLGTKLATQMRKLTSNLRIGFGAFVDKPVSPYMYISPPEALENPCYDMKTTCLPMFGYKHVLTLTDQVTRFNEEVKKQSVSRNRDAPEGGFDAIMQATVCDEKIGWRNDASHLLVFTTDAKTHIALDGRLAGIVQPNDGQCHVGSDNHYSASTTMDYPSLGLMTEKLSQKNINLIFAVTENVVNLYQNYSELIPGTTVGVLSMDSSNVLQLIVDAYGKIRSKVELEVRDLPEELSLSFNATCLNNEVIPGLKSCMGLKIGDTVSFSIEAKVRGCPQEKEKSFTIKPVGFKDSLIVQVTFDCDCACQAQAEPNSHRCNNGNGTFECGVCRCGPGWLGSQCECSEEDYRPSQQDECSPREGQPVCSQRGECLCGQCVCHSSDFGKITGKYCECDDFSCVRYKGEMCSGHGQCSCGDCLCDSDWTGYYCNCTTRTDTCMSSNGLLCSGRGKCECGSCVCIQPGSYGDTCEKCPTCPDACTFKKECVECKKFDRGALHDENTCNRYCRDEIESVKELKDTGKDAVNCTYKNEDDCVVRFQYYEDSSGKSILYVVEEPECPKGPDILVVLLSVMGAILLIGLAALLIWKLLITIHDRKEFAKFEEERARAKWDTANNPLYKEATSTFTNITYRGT
Sequence of Integrin alpha-IIb/beta-3 (P08514 32-887 limits assumed): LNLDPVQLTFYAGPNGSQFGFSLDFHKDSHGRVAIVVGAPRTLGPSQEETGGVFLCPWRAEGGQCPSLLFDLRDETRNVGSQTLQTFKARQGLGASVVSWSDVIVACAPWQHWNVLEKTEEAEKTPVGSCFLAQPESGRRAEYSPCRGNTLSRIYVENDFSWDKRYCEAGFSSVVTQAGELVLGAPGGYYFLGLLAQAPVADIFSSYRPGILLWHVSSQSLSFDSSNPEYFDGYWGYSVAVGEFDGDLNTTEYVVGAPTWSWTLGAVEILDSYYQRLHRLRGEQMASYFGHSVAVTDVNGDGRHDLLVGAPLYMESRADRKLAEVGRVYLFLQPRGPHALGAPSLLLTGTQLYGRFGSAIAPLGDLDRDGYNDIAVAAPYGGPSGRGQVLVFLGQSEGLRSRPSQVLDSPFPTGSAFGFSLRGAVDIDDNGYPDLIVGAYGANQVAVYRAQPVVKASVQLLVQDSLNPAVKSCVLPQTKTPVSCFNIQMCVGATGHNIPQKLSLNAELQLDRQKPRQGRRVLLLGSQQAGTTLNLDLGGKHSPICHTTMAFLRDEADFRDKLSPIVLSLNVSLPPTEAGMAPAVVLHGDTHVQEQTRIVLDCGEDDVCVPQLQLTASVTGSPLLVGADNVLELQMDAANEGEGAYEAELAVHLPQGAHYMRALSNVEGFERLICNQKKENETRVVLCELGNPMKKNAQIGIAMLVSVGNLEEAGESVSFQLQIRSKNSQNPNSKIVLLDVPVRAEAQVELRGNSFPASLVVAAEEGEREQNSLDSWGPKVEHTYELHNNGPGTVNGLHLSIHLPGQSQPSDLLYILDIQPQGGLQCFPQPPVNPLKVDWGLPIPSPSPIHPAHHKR
Sequence of Integrin alpha-IIb/beta-3 (P08514 891-1039 limits assumed): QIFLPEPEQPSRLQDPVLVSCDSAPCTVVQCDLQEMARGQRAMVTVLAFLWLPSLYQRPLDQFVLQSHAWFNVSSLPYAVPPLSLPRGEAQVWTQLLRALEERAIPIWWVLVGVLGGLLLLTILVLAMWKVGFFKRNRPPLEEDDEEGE

Rattus norvegicus [7] = test: Antithrombotic activity in iv dosed Sprague-Dawley rat arteriovenous shunt thrombosis model assessed as wet/dry weight reduction of thrombus incubated for 30 mins prior to testing; assay type: functional, organism-based
Mus musculus [8] = test: Toxicity in ICR mouse assessed as bleeding time at 0.3 mg/kg incubated for 30 mins prior to testing by tail transection method; assay type: organism-based; settings: in vivo, 0.5 h
Rattus norvegicus [9] = test: Antithrombotic activity in Sprague-Dawley rat arteriovenous shunt thrombosis model assessed as wet/dry weight reduction of thrombus at 3 mg/kg, iv incubated for 30 mins prior to testing; assay type: functional; parameters: scale not given: the % may be the effect or the level left
Mus musculus [10] = test: Toxicity in ICR mouse assessed as bleeding time at 3 mg/kg incubated for 30 mins prior to testing by tail transection method; assay type: organism-based; settings: in vivo, 0.5 h

Structure (SMILES)	inhibition [1] [%]	inhibition [2] [%]	further results
COc1ccc(S(=O)(=O)N[C@@H](Cc2c[nH]c3ccc(OCCCCC4CCNCC4)cc23)C(=O)O)cc1	39.3		
O=C(N[C@@H](Cc1c[nH]c2ccc(OCCCN3CCNCC3)cc12)C(=O)O)c1ccccc1		82.4	
O=C(O)[C@H](Cc1c[nH]c2ccc(OCCCCC3CCNCC3)cc12)NS(=O)(=O)c1ccc([N+](=O)[O-])cc1	45.3		
CCCC(=O)N[C@@H](Cc1c[nH]c2ccc(OCCC3CCNCC3)cc12)C(=O)O		29.5	
O=C(N[C@@H](Cc1c[nH]c2ccc(OCCCC3CCNCC3)cc12)C(=O)O)c1ccccc1		92.7	
CCCCS(=O)(=O)N[C@@H](Cc1c[nH]c2ccc(OCCCCN3CCNCC3)cc12)C(=O)O		61.2	
CCCC(=O)N[C@@H](Cc1c[nH]c2ccc(OCCCN3CCNCC3)cc12)C(=O)O		84.3	
CCCCS(=O)(=O)N[C@@H](Cc1ccc(OCCCCC2CCNCC2)cc1)C(=O)O [TIROFIBAN]			Time (Mus musculus [3]): 17 min; inhibition [4]: Active; Activity (Rattus norvegicus [5]): Active
O=C(O)[C@H](Cc1c[nH]c2ccc(OCCCN3CCNCC3)cc12)NS(=O)(=O)c1ccccc1		55.3	
CCCC(=O)N[C@@H](Cc1c[nH]c2ccc(OCCCC3CCNCC3)cc12)C(=O)O		71.2	
COc1ccc(C(=O)N[C@@H](Cc2c[nH]c3ccc(OCCCCC4CCNCC4)cc23)C(=O)O)cc1	38.3		
CCCC(=O)N[C@@H](Cc1c[nH]c2ccc(OCCCCC3CCNCC3)cc12)C(=O)O		53.3	
NC(=O)C[C@H](NC(=O)[C@@H]1CCC(=O)N1)C(=O)N[C@@H](Cc1c[nH]c2ccccc12)C(=O)O ([pGlu]-Asn-Trp-OH)	21.4	38.7	Activity (Mus musculus [3]): Non-toxic; IC50 [6]: 12.5 µM; Activity (Rattus norvegicus [5]): inactive
CCCCS(=O)(=O)N[C@@H](Cc1c[nH]c2ccc(OCCCCC3CCNCC3)cc12)C(=O)O		52.4	
Cc1ccc(S(=O)(=O)N[C@@H](Cc2c[nH]c3ccc(OCCCCC4CCNCC4)cc23)C(=O)O)cc1	43.1		

Now from value to compound, other results behind:

inhibition [1] [%]	inhibition [2] [%]	Structure (SMILES)	further results
	58.3	CCCC(=O)N[C@@H](Cc1c[nH]c2ccc(OCCN3CCNCC3)cc12)C(=O)O	
53.4		O=C(N[C@@H](Cc1c[nH]c2ccc(OCCCCC3CCNCC3)cc12)C(=O)O)c1cccc(F)c1	
27.9	96.2	O=C(N[C@@H](Cc1c[nH]c2ccc(OCCCCC3CCNCC3)cc12)C(=O)O)c1ccccc1	
	88.9	CCCCS(=O)(=O)N[C@@H](Cc1c[nH]c2ccc(OCCCN3CCNCC3)cc12)C(=O)O	
	35.2	CC(=O)N[C@@H](CC(N)=O)C(=O)N[C@@H](Cc1c[nH]c2ccccc12)C(=O)O (Ac-Asn-Trp-OH)	
	12.4	CCCC(=O)N[C@@H](Cc1c[nH]c2ccc(OCCN3CCN(C)CC3)cc12)C(=O)O	
43.5		O=C(N[C@@H](Cc1c[nH]c2ccc(OCCCCC3CCNCC3)cc12)C(=O)O)c1ccc([N+](=O)[O-])cc1	
57.1		O=C(O)[C@H](Cc1c[nH]c2ccc(OCCCCC3CCNCC3)cc12)NS(=O)(=O)c1ccc(F)cc1	
	94.5	O=C(O)[C@H](Cc1c[nH]c2ccc(OCCCC3CCNCC3)cc12)NS(=O)(=O)c1ccccc1	
54.9		O=C(N[C@@H](Cc1c[nH]c2ccc(OCCCCC3CCNCC3)cc12)C(=O)O)c1ccc(F)cc1	
81.2		O=C(O)[C@H](Cc1c[nH]c2ccc(OCCCCC3CCNCC3)cc12)NS(=O)(=O)c1ccc(Br)cc1	Activity (Rattus norvegicus [7]): Dose-dependent effect; Time (Mus musculus [3]): 11.8 min; Time (Mus musculus [8]): 10.6 min; Activity (Rattus norvegicus [9]): 41.7%; Time (Mus musculus [10]): 13.5 min; Activity (Rattus norvegicus [5]): 26.6%
	57.5	O=C(O)[C@H](Cc1c[nH]c2ccc(OCCCCN3CCNCC3)cc12)NS(=O)(=O)c1ccccc1	
	73.3	CCCCS(=O)(=O)N[C@@H](Cc1c[nH]c2ccc(OCCCC3CCNCC3)cc12)C(=O)O	
	51.4	CC(=O)N[C@@H](CC(N)=O)C(=O)N[C@@H](Cc1c[nH]c2ccc(OCCCC3CCNCC3)cc12)C(=O)O	
62.7		O=C(N[C@@H](Cc1c[nH]c2ccc(OCCCCC3CCNCC3)cc12)C(=O)O)c1cc(Cl)cc(Cl)c1	
	79.1	CCCC(=O)N[C@@H](Cc1c[nH]c2ccc(OCCCCN3CCNCC3)cc12)C(=O)O	
53.8	99.2	O=C(O)[C@H](Cc1c[nH]c2ccc(OCCCCC3CCNCC3)cc12)NS(=O)(=O)c1ccccc1	
	13.5	CCCC(=O)N[C@@H](Cc1c[nH]c2ccc(OCCCN3CCN(C)CC3)cc12)C(=O)O	
	83.3	O=C(N[C@@H](Cc1c[nH]c2ccc(OCCCCN3CCNCC3)cc12)C(=O)O)c1ccccc1	
